From patent publication EP4755889A1, “COMPOUND FOR DETECTING AMYLOID-BETA OLIGOMER AND METHOD FOR DIAGNOSING DEGENERATIVE BRAIN DISEASE USING SAME” (Amyloid Solution Inc., priority 2024, dated 2025)

How the values were obtained:
[1] = molecular target: T1, Aβ1-42-Aβn-(n+5) complexes (Homo sapiens, UniProt P05067); assay: Mapping Amyloid Plate (MAP): binding to complexes of Aβ1-42 with fragments
T1 construct: full-length Aβ1-42 peptide was added to the MAP and incubated at 37 °C for 8 hours
Protocol: A Mapping Amyloid Plate (MAP) for investigating the target site of the compound of the present disclosure on Aβ1-42 fragments or Aβ1-42 oligomers was prepared with reference to Korean Patent Application No. 10-2023-0133625, which is incorporated herein by reference in its entirety.
Briefly, to remove the bovine serum albumin coating from the plate, each well of the plate was washed three times with 200 µL of wash buffer (0.1 M sodium phosphate, 0.15 M sodium chloride, 0.05 % Tween-20, pH 7.2). Full-length and fragmented peptides of Aβ1-42 were individually dissolved in DMSO to prepare […] stock solutions, which were then diluted with binding buffer (0.1 M sodium phosphate, 0.15 M sodium chloride, 10 mM EDTA, pH 7.2) to prepare 50 µg/mL peptide solutions (5 % DMSO). 100 µL of the peptide solution was added to each well and allowed to react with the maleimide at room temperature overnight. After peptide immobilization, unbound peptides were removed by washing three times with 200 µL of wash buffer. To inactivate residual maleimide groups, 200 µL of a cysteine solution (10 µg/mL in binding buffer) was added to each well and incubated at room temperature for 1 hour. After cysteine capping, all wells of the plate were washed three times with 200 µL of wash buffer.
Two conditions were prepared to confirm whether the compound of the present disclosure targets the structure or the sequence of Aβ oligomers. First, the compound of the present disclosure (50 µM) was prepared in binding buffer (10 % DMSO), and 100 µL of the compound was added to the MAP and treated for 24 hours at room temperature. After incubation, all wells were washed three times with 200 µL of wash buffer. Second, full-length Aβ1-42 peptide was added to the MAP and incubated at 37 °C for 8 hours to form complexes between full-length Aβ1-42 and fragmented Aβ1-42. […] The fluorescence intensity of both plates was measured using a microplate reader (λex = 285 nm/λem = 475 nm). […]

Aβ1-42 oligomers [2] = molecular target: T2, Aβ1-42 oligomers (Homo sapiens, UniProt P05067); assay: Selectivity for blood proteins: Aβ1-42 oligomers; format: binding; conditions: IK15j (25 µM); compared with albumin and fibrinogen
T2 construct: Aβ1-42 peptide was aggregated at 37 °C for 8 hours
Protocol: Aβ1-42 peptide was aggregated at 37 °C for 8 hours, and 25 µM of Aβ1-42 oligomers, albumin (Sigma-Aldrich, USA), and fibrinogen (Sigma-Aldrich, USA) were seeded into a black microplate. Each sample was treated with IK15j (100 µM) for 8 hours at room temperature. The signal of each sample was detected using a microplate reader (λex = 285 nm / λem = 475 nm).
Excluding water, the solid components of plasma consist of coagulation factors and plasma proteins. Albumin is the most abundant protein in plasma, and fibrinogen is a major coagulation factor in plasma. Considering the possibility that fibrinogen or albumin might interact with AD diagnostic tools and interfere with compound selectivity, IK15j (25 µM) was incubated with Aβ1-42, albumin, or fibrinogen as described in Reference Example 10, and the fluorescence signal of each sample was measured to evaluate the selectivity of the compound of the present disclosure against these proteins.

Aβ1-42 oligomers [3] = molecular target: T2, Aβ1-42 oligomers; assay: Selectivity for Aβ1-42 over tau domain (fluorescence); format: binding; conditions: tau repeat domain 3 aggregates
Protocol: Considering that tau protein aggregation is also a major pathological feature of AD, the selectivity of IK15j for Aβ1-42 over tau domains was further evaluated. […] Since repeat domain 3 is a core region of tau aggregates, IK15j was incubated with the tau domain or with Aβ1-42, and the resulting changes in fluorescence intensity were compared. Briefly, Aβ1-42 and tau aggregate samples were each treated with IK15j, and the fluorescence intensity was measured. As a result, the signal of IK15j increased in the presence of Aβ1-42 oligomers compared to that of the tau domain (FIG. 3E).

[4] = system: insoluble plaques in the 5XFAD mouse brain; assay: Brain staining of AD mouse model with compound and anti-Aβ antibody 6E10; conditions: 5XFAD brain sections; co-staining with 6E10
Protocol: Mouse brain tissues were fixed in 4 % paraformaldehyde (Biosesang, Korea) at 4 °C overnight and then cryoprotected by immersion in 30 % sucrose for 48 hours. Brain sections (25 µm) were cut using a cryostat (CM1860, Leica) and mounted on slides. The brain tissue sections were treated with the compound of the present disclosure (500 µM) overnight at room temperature. After washing with 1X PBS, antigen retrieval for the fixed brain sections was performed in 1X PBS (Gibco, Korea) containing 1 % SDS (Biosesang, Korea) for 10 minutes, followed by blocking with 20 % horse serum in 1X PBS. After blocking for 1 hour, the slides were incubated with mouse monoclonal antibody 6E10 (1:200, BioLegend, USA) at room temperature for 1 hour. […] After staining the cortical and hippocampal regions of the fixed brain, each brain slide was visualized using a fluorescence microscope (DM500, Leica) equipped with filter cubes containing excitation and emission filters: N2.1 filter cube for detecting 6E10 staining (Excitation filter: BP 515-560; Dichromatic mirror: 580; Emission filter: LP 590) and L5 filter cube for detecting the compound of the present disclosure (Excitation filter: BP 480/40; Dichromatic mirror: 505; Emission filter: BP 527/30). […]

[5] = MAP incubated with additional Aβ1-42 for 8 hours, then IK15j for 24 hours

T1 sequence (P05067 672-713, one chain of several): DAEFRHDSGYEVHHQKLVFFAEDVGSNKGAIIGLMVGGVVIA
T2 sequence (P05067 672-713): as the sequence (P05067 672-713, one chain of several) above

With Cc1ccc2c(c1)c(-c1ccccc1)cn1c(C)cc(C#N)c21 [IK15j, 3,8-dimethyl-6-phenylpyrrolo[2,1-a]isoquinoline-1-carbonitrile] as the compound, how does the “binding affinity for the N-terminus of Aβ, Aβ1-8 (DAEFRHDS)” value ([1]; MAP complexes) read?
Its value is “moderate binding affinity”.

And the “binding to complexes of Aβ1-42 with Aβ19-25 (FFAEDVG) and Aβ35-42 (MVGGVVIA)” value [1, 5]?
Its value is “bound strongly”.

What about the “overall signal in the presence of Aβ1-42-Aβn-(n+5) complexes” value [1, 5] of the same compound?
The value was “increased”.

What about the “fluorescence intensity in the presence of Aβ1-42 oligomers compared to other proteins” value (Aβ1-42 oligomers [2]) of the same compound?
Its value is “increased markedly”.

What about the “signal in the presence of Aβ1-42 oligomers compared to the tau domain” value (Aβ1-42 oligomers [3]) of the same compound?
Its value is “increased”.

And the “signal in hippocampal and cortical regions (brain staining)” value [4]?
Its value is “no signal”.
